The target of one assay is T1, HMG--CoA reductase (Rattus norvegicus, UniProt P51639).
T1 sequence (P51639 1-887): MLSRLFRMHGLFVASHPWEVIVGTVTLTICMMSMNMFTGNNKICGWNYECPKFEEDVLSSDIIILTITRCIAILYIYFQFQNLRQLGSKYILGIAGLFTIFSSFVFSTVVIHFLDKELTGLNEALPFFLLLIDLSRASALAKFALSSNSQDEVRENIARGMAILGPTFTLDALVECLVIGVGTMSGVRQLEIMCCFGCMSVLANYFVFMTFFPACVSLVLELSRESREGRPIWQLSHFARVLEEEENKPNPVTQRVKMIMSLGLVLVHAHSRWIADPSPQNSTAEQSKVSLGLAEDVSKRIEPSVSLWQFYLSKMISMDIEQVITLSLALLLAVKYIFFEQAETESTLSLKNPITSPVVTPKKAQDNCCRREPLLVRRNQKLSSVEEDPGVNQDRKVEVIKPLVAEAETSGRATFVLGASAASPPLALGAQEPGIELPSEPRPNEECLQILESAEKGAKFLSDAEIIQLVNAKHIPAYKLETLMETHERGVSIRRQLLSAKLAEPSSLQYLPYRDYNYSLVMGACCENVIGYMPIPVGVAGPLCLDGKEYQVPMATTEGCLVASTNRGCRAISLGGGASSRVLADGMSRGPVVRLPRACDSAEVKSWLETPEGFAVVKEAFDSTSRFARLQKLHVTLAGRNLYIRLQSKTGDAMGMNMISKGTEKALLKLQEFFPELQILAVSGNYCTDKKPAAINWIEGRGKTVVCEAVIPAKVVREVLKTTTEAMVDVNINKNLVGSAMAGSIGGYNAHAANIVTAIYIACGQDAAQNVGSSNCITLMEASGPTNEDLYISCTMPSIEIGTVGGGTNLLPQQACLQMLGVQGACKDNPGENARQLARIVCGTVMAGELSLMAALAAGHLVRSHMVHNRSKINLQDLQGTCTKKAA
As to the kind of experiment: inhibition of HMG-CoA reductase activity on solubilized enzyme preparations from rat liver microsomes. The assay is classed as biochemical. The procedure:
The inhibition of HMG--CoA reductase activity by the compounds of the general formulae I and II was determined on solubilized enzyme preparations from rat liver microsomes.
After a changeover in the day/night rhythm of the rats, enzyme production was induced with cholestyramine (®Cuemid) The substrate used was (S,R) ^14 C--HMG--CoA, and the concentration of NADPH was maintained by a regenerating system during the incubation. ^14 C-mevalonate was removed from substrate and other products (for example ^14 C--HMG) by column elution, with the elution profile of each individual sample being determined. Inclusion of ^3 H-mevalonate throughout was dispensed with because the data to be determined were of the relative inhibitory effect. In each test series the enzyme-free control, the enzyme-containing normal mixture (=100%) and those with added products were treated together. Each individual value was formed as the mean of 3 parallel samples. The t test was used to assess the significance of the differences between the means for product-free and productcontaining samples.

In another assay the test system is cholesterol biosynthesis. As to the kind of experiment: inhibition of cholesterol biosynthesis by incorporation of 14C-acetate into cholesterol in HEP G2 cell cultures. The assay is classed as cell-based. The conditions noted are these: for % potency relative to mevinolin sodium at IC70: comparison of IC70 with mevinolin sodium salt (internal standard). The procedure:
In addition, the inhibition of cholesterol biosynthesis by selected compounds was tested by the incorporation of ^14 C-precursor in cholesterol in cell cultures.
Monolayers of HEP G2 cells in lipoprotein-free nutrient medium were preincubated with various concentrations of the test substances for 1 hour. The ^14 C-labeled precursor sodium ^14 C-acetate was added, and the incubation was then continued for 3 hours. Subsequently 3H-cholesterol was added as internal standard, and a portion of these cells underwent alkaline hydrolysis. The lipids from the hydrolyzed cells were extracted with chloroform/methanol. Carrier cholesterol was added to this lipid mixture which was then subjected to preparative thin-layer chromatography, the cholesterol band was visualized with iodine vapor and then isolated, and the amount of ^14 C-cholesterol formed from the ^14 C-precursor was determined by scintigraphy. Cellular protein was determined in an aliquot of the cells, so that the amount of ^14 C-cholesterol formed from ^14 C-precursor in unit time per mg of cellular protein can be calculated. The solvent control is used for comparison of the inhibitory effect of an added test product, so that it is possible to state directly the inhibition of cholesterol biosynthesis at a particular molar concentration of the test product in the medium. The integrity of the cell culture and the absence of cell damage due to exposure to the products was checked morphologically (light microscope) in an aliquot of the cell cultures. […] The relative potency was determined by comparing the IC70 values and IC50 values for the test compound and for mevinolin sodium salt (internal standard).

The mark [1] stands for this setting: HEP G2 cells, 1 h preincubation, 3 h with 14C-acetate.

Turning to `COC(=O)C[C@H](O)C[C@H](O)/C=C/c1c(-c2ccc(F)cc2)cn(-c2ccccc2)c1C(C)C` (relative stereo) [Example 11, methyl 3(RS),5(SR)-dihydroxy-7-[1-phenyl-2-isopropyl-4-(4-fluorophenyl)-1H-pyrrol-3-yl]hept-6(E)-enoate], the IC50 at HMG--CoA reductase is 8 nM.

As to `COC(=O)C[C@H](O)C[C@H](O)/C=C/c1c(-c2ccc(F)cc2)c(C)n(-c2ccccc2)c1C` (relative stereo) [Example 1, methyl 3(RS),5(SR)-dihydroxy-7-[1-phenyl-2,5-dimethyl-4-(4-fluorophenyl)-1H-pyrrol-3-yl]hept-6(E)-enoate], in the assay on cholesterol biosynthesis (setting [1]), the “% potency relative to mevinolin sodium at IC70” value is reported as 180%. This compound registered an IC50 against HMG--CoA reductase of 320 nM.

The compound `Cc1c(/C=C/[C@@H](O)C[C@@H](O)CC(=O)O)c(-c2ccc(F)cc2)cn1C(C)C` (relative stereo) [Example 16, Sodium 3(RS),5(SR)-dihydroxy-7-[1-isopropyl-2-methyl-4-(4-fluorophenyl)-1H-pyrrol-3-yl]hept-6(E)-enoate] registered an IC50 at HMG--CoA reductase of 160 nM.

As for `COC(=O)C[C@H](O)C[C@H](O)/C=C/c1c(-c2ccc(F)cc2)cn(-c2ccccc2)c1C` (relative stereo) [Example 9, methyl 3(RS),5(SR)-dihydroxy-7-[1-phenyl-2-methyl-4-(4-fluorophenyl)-1H-pyrrol-3-yl]hept-6(E)-enoate], the midpoint of inhibition at HMG--CoA reductase, the IC50, lay at 120 nM.

Consider `COC(=O)C[C@H](O)C[C@H](O)CCc1c(-c2ccc(F)cc2)cn(C(C)C)c1C` (racemic) [Example 17, Methyl 3(RS),5(RS)-dihydroxy-7-[1-isopropyl-2-methyl-4-(4-fluorophenyl)-1H-pyrrol-3-yl]heptanoate], for which, at HMG--CoA reductase, the IC50 turned out to be 100 nM.

For `COC(=O)C[C@H](O)C[C@H](O)/C=C/c1c(-c2ccc(F)cc2)c(C)n(-c2ccccc2)c1C(C)C` (relative stereo) [Example 5, Methyl 3(RS),5(SR)-dihydroxy-7-[1-phenyl-2-isopropyl-4-(4-fluorophenyl)-5-methyl-1H-pyrrol-3-yl]hept-6(E)-enoate], on HMG--CoA reductase, inhibition was half-maximal at 7 nM (IC50).

In turn, `COC(=O)C[C@H](O)C[C@H](O)/C=C/c1c(-c2ccc(F)cc2)cn(C(C)C)c1C` (relative stereo) [Example 15, methyl 3(RS),5(SR)-dihydroxy-7-[1-isopropyl-2-methyl-4-(4-fluorophenyl)-1H-pyrrol-3-yl]hept-6(E)-enoate] returned an IC50 at HMG--CoA reductase of 70 nM.

As for `COC(=O)C[C@H](O)C[C@H](O)CCc1c(-c2ccc(F)cc2)c(C)n(-c2ccccc2)c1C(C)C` (racemic) [Example 7, Methyl 3(RS),5(RS)-dihydroxy-7-[1-phenyl-2-isopropyl-4-(4-fluorophenyl)-5-methyl-1H-pyrrol-3-yl]heptanoate], at HMG--CoA reductase, inhibition was half-maximal at 8 nM (IC50).

Compound `Cc1c(/C=C/[C@@H](O)C[C@@H](O)CC(=O)O)c(-c2ccc(F)cc2)c(C)n1-c1ccccc1` (relative stereo) [Example 2, Sodium 3(RS),5(SR)-dihydroxy-7-[1-phenyl-2,5-dimethyl-4-(4-fluorophenyl)-1H-pyrrol-3-yl]hept-6(E)-enoate] yielded an IC50 against HMG--CoA reductase of 120 nM.

As for `Cc1c(CC[C@@H](O)C[C@@H](O)CC(=O)O)c(-c2ccc(F)cc2)cn1C(C)C` (racemic) [Example 18, Sodium 3(RS),5(RS)-dihydroxy-7-[1-isopropyl-2-methyl-4-(4-fluorophenyl)-1H-pyrrol-3-yl]heptanoate], half-maximal inhibition on HMG--CoA reductase (IC50) was put at 50 nM.

Compound `CC[C@H](C)C(=O)O[C@H]1C[C@@H](C)C=C2C=C[C@H](C)[C@H](CC[C@@H](O)C[C@@H](O)CC(=O)O)[C@H]21` [mevinolin sodium, reference compound] registered a 70% effect concentration (IC70) with cholesterol biosynthesis (Homo sapiens, HepG2) of 150 nM. This compound also returned an IC50 in the assay on cholesterol biosynthesis (Homo sapiens, HepG2, HEP G2 cells, mean figure, varies somewhat from cell culture to cell culture) of 50 nM.

As for `Cc1c(CC[C@@H](O)C[C@@H](O)CC(=O)[O-])c(-c2ccc(F)cc2)c(C)n1-c1ccccc1.[Na+]` (racemic) [Example 4, Sodium 3(RS),5(RS)-dihydroxy-7-[1-phenyl-2,5-dimethyl-4-(4-fluorophenyl)-1H-pyrrol-3-yl]heptanoate], the “% potency relative to mevinolin sodium at IC50” value in the assay with cholesterol biosynthesis (HEP G2 cells, 1 h preincubation, 3 h with 14C-acetate, comparison of IC50 with mevinolin sodium salt (internal standard)) is 450%. For the same compound, the “% potency relative to mevinolin sodium at IC70” value in the assay with cholesterol biosynthesis (setting [1]) was found to be 51%. The same compound returned an IC50 against HMG--CoA reductase of 8.7 nM.

`COC(=O)C[C@H](O)C[C@H](O)CCc1c(-c2ccc(F)cc2)cn(-c2ccccc2)c1C(C)C` (racemic) [Example 13, Methyl 3(RS),5(RS)-dihydroxy-7-[1-phenyl-2-isopropyl-4(4-fluorophenyl)-1H-pyrrol-3-yl]heptanoate] returned a 50% inhibitory concentration (IC50) against HMG--CoA reductase of 15 nM.

Compound `CC(C)c1c(CC[C@@H](O)C[C@@H](O)CC(=O)O)c(-c2ccc(F)cc2)cn1C(C)C` (racemic) [Example 26, Sodium 3(RS),5(RS)-dihydroxy-7-[1,2-diisopropyl-4-(4-fluorophenyl)-1H-pyrrol-3-yl]heptanoate] displayed an IC50 at HMG--CoA reductase of 3 nM.

On to `CC(C)c1c(/C=C/[C@@H](O)C[C@@H](O)CC(=O)O)c(-c2ccc(F)cc2)cn1C1CCCCC1` (relative stereo) [Example 20, Sodium 3(RS),5(SR)-dihydroxy-7-[1-cyclohexyl-2-isopropyl-4(4-fluorophenyl)-1H-pyrrol-3-yl]hept-6(E)-enoate], for which the IC50 against HMG--CoA reductase came to 12 nM.

Take `COC(=O)C[C@H](O)C[C@H](O)CCc1c(-c2ccc(F)cc2)c(C)n(-c2ccccc2)c1C` (racemic) [Example 3, Methyl 3(RS),5(RS)-dihydroxy-7-[1-phenyl-2,5-dimethyl-4-(4-fluorophenyl)-1H-pyrrol-3-yl]heptanoate]: the IC50 on HMG--CoA reductase was 80 nM.

Compound `Cc1c(-c2ccc(F)cc2)c(CC[C@@H](O)C[C@@H](O)CC(=O)O)c(C(C)C)n1-c1ccccc1` (racemic) [Example 8, Sodium 3(RS),5(RS)-dihydroxy-7-[1-phenyl-2-isopropyl-4-(4-fluorophenyl)-5-methyl-1H-pyrrol-3-yl]heptanoate] gave an IC50 against HMG--CoA reductase of 2.5 nM.

For `CC(C)c1c(CC[C@@H](O)C[C@@H](O)CC(=O)[O-])c(-c2ccc(F)cc2)cn1-c1ccccc1.[Na+]` (racemic) [Example 14, Sodium 3(RS),5(RS)-dihydroxy-7-[1-phenyl-2-isopropyl-4-(4-fluorophenyl)-1H-pyrrol-3-yl]heptanoate], the “% potency relative to mevinolin sodium at IC70” value in the assay with cholesterol biosynthesis (setting [1]) was 150%. Also, the IC50 against HMG--CoA reductase came out at 3 nM.

These data come from patent publication US5055484A, “7(1H-pyrrol-3-YL)-substituted 3,5-dihydroxyhept-6-enoic acids, 7-(1H-pyrrol-3-YL)-substituted 3,5-dihyroxyhept-anoic acids, their corresponding delta-lactones and salts, their use as medicaments and pharmaceutical products and intermediates” (Hoechst Aktiengesellschaft, priority 1987, dated 1991).
